“Also recorded” adds a separate entry of the source.
Legend:
Sprague-Dawley rats = conditions: rat, in vivo
male Sprague-Dawley rats = conditions: rat, in vivo
weanling pigs = conditions: pig, in vivo

CC1=C[C@H]2O[C@@H]3[C@H](O)C[C@](C)([C@@]2(CO)[C@H](O)C1=O)[C@]31CO1 [DON, 3α,7α,15-trihydroxy-12,13-epoxy-trichothec-9-en-8-one] was tested, and the “induction of fed pattern of gut motility” value (Sprague-Dawley rats) was “induced the fed pattern”, the food consumption (male Sprague-Dawley rats) was “decrease” and the “food consumption and weight gain” value (male Sprague-Dawley rats) was “immediate and sustained reduction; also recorded: concentration-dependant reduction”. The weight gain (male Sprague-Dawley rats) was “decrease”, the emesis (weanling pigs) was “some emesis” and the “food consumption in the AM meal following the AM treat” value (weanling pigs) was “decreased food consumption”. For the same compound, the “persistence of the effect on food consumption” value (weanling pigs) was “wore off by the next meal”.
C[C@@H]1C[C@H]2O[C@@H]3[C@H](O)C[C@](C)([C@]24COC(c2ccccc2)O[C@@H]4[C@@H]1O)[C@@]3(C)O (stereo partly drawn) [EN139502, 7α,15-benzylidene-9α,12β-dimethyltrichothecan-3α,8α,12α-triol] was tested, and the “delay before effect on the fasting pattern” value (Sprague-Dawley rats) was “approximately 5 min”, the “effect on fasting pattern of gut motility” value (Sprague-Dawley rats) was “intensify or enhance the fasting pattern” and the “induction of fed pattern of gut motility” value (Sprague-Dawley rats) was “did not induce the fed pattern”.
C[C@@H]1C[C@H]2O[C@@H]3[C@H](O)C[C@](C)([C@]24COC(c2ccccc2)O[C@@H]4C1=O)[C@@]3(C)O (stereo partly drawn) [EN139522, 7α,15-benzylidene-9α,12β-dimethyl-3α,12α-dihydroxytrichothecan-8-one] was tested, and the duration of action (Sprague-Dawley rats) was 35 min, the “induction of fed pattern of gut motility” value (Sprague-Dawley rats) was “induce a classic fed pattern” and the “onset time after administration” value (Sprague-Dawley rats) was 20 s.
